Experimental data published in paper PMC11544713, “The Application of Untargeted Metabolomic Approaches for the Search of Common Bioavailable Metabolites in Human Plasma Samples from Lippia citriodora and Olea europaea Extracts” (Journal of Agricultural and Food Chemistry, 2024).
Counter-ions that a name gives are not always drawn.

What was measured:
[1] = Acute intervention: nutrikinetics of plasma metabolites after ingestion of O. europaea extract (untargeted HPLC-ESI-QTOF-MS)
Experimental: (§1) A total of 25 healthy individuals participated, with an average age of 27 ± 9 years and a mean body mass index (BMI) of 23 ± 3 kg/m^2. None of the participants were taking any medications or nutritional supplements nor did they have any chronic diseases or gastrointestinal issues. The sample size was established based on findings from previous bioavailability research.[14] All participants provided informed consent before participating in the study.
(§2) The intervention study was carried out at Miguel Hernández University. Following an overnight fast, the volunteers were categorized into the subsequent groups: a subgroup to evaluate the LC leaf extract (n = 8), another for the OE leaf extract (n = 8), and the placebo subgroup (n = 9). This was a double-blind study, in which sample collection and treatment were carried out uniformly across all three subgroups.
(§3) Water was provided ad libitum. Prior to the ingestion of the capsule, a nurse inserted a cannula into the ulnar vein of each volunteer’s nondominant arm, and blood samples were drawn into EDTA-coated tubes at baseline (t = 0). Blood samples were then collected at 0.5, 1, 2, 4, 6, 8, and 10 h after the consumption of the 500 mg capsule. Plasma was separated through centrifugation (10 min at 3000 rpm and 4 °C) and stored at −80 °C until further analysis.
(§4) Plasma samples were initially treated using a mixture of methanol and ethanol (50:50; v:v) to remove proteins, following previously reported protocols.[19] During the sample treatment, pooled quality controls (pooled-QC) were prepared by combining equal aliquots from each sample. These QC samples were processed by using the same protocols as the experimental biological samples.
(§5) A reversed-phase analytical C18 column (Agilent Zorbax Eclipse Plus, 1.8 μm, 4.6 × 150 mm^2) with a protective cartridge with the same packing was used. MS data were acquired in negative ionization mode, operating in full scan across a mass-to-charge ratio (m/z) range of 50–1700. The analytical method used was adapted from that described by Villegas-Aguilar et al.[19]
(§6) Metabolite nutrikinetics were studied using PKSolver, an add-in program for pharmacokinetic data analysis in Microsoft Excel. The time to reach the maximum concentration (observed Tmax) was calculated for each significant metabolite. As an untargeted metabolomic approach was used to detect the circulating metabolites, these were not quantified. Therefore, the maximum concentration (Cmax) and area under the curve (AUC) parameters were calculated in a relative way by using the deconvoluted chromatographic areas. […] Statistical differences were determined by unpaired t tests. All p values less than 0.05 were considered statistically significant.

[2] = Acute intervention: nutrikinetics of plasma metabolites after ingestion of L. citriodora extract (untargeted HPLC-ESI-QTOF-MS)
Experimental: as §1, §2, §3, §4, §5, §6

[3] = 0.5 h after O. europaea extract
[4] = human plasma, 500 mg capsule of O. europaea (OE) extract, oral, mean ± SD
[5] = 0.5 h after L. citriodora extract
[6] = 1 h after L. citriodora extract
[7] = 2 h after L. citriodora extract
[8] = 4 h after L. citriodora extract
[9] = 6 h after L. citriodora extract
[10] = 8 h after L. citriodora extract
[11] = 10 h after L. citriodora extract
[12] = human plasma, 500 mg capsule of L. citriodora (LC) extract, oral, mean ± SD

Compound	mean chromatographic area in plasma, T0.5 [2, 5]	mean chromatographic area in plasma, T1 [2, 6]	mean chromatographic area in plasma, T2 [2, 7]	mean chromatographic area in plasma, T4 [2, 8]	mean chromatographic area in plasma, T6 [2, 9]	mean chromatographic area in plasma, T8 [2, 10]	mean chromatographic area in plasma, T10 [2, 11]	AUC: area under the zero-moment curve [2, 12]	Cmax: relative maximum plasma level [2, 12]	observed Tmax: time required to reach Cmax [2, 12]	AUC: area under the zero-moment curve ([2]; human, in vivo, po, 500 mg)	Cmax: relative maximum plasma level ([2]; human, in vivo, po, 500 mg)	mean chromatographic area in plasma, T0.5 ([2]; in vivo)	mean chromatographic area in plasma, T1 ([2]; in vivo)	mean chromatographic area in plasma, T2 ([2]; in vivo)	mean chromatographic area in plasma, T4 ([2]; in vivo)	mean chromatographic area in plasma, T6 ([2]; in vivo)	mean chromatographic area in plasma, T8 ([2]; in vivo)	mean chromatographic area in plasma, T10 ([2]; in vivo)	observed Tmax: time required to reach Cmax ([2]; human, in vivo, po, 500 mg)	other results
Cc1cccc(O)c1O [3-methylcatechol]	0	0	0	86	91	76	58	565 ± 407 relative chromatographic area/h	169 ± 59 relative chromatographic area	8 ± 3 h											mean chromatographic area in plasma, T0.5 [1, 3]: 290; mean chromatographic area in plasma, T1 ([1]; 1 h after O. europaea extract): 235; mean chromatographic area in plasma, T2 ([1]; 2 h after O. europaea extract): 50; mean chromatographic area in plasma, T4 ([1]; 4 h after O. europaea extract): 64; mean chromatographic area in plasma, T6 ([1]; 6 h after O. europaea extract): 16; mean chromatographic area in plasma, T8 ([1]; 8 h after O. europaea extract): 13; mean chromatographic area in plasma, T10 ([1]; 10 h after O. europaea extract): 0; Cmax: relative maximum plasma level [1, 4]: 307 ± 160 relative chromatographic area; observed Tmax: time required to reach Cmax [1, 4]: 0.6 ± 0.2 h
COc1cc(C=CC(=O)O)ccc1OS(=O)(=O)O [ferulic acid 4-sulfate]	33	131	259	230	222	152	39	1752 ± 1781 relative chromatographic area/h	354 ± 254 relative chromatographic area	3 ± 2 h											mean chromatographic area in plasma, T0.5 [1, 3]: 0; mean chromatographic area in plasma, T1 ([1]; 1 h after O. europaea extract): 78; mean chromatographic area in plasma, T2 ([1]; 2 h after O. europaea extract): 84; mean chromatographic area in plasma, T4 ([1]; 4 h after O. europaea extract): 22; mean chromatographic area in plasma, T6 ([1]; 6 h after O. europaea extract): 18; mean chromatographic area in plasma, T8 ([1]; 8 h after O. europaea extract): 0; mean chromatographic area in plasma, T10 ([1]; 10 h after O. europaea extract): 0; Cmax: relative maximum plasma level [1, 4]: 142 ± 20 relative chromatographic area; observed Tmax: time required to reach Cmax [1, 4]: 1.6 ± 0.5 h
COc1cc(CC(=O)O)ccc1OS(=O)(=O)O [homovanillic acid sulfate isomer 1, homovanillic acid sulfate]											1391 ± 1144 relative chromatographic area/h	341 ± 164 relative chromatographic area	0	0	19	147	209	221	207		Cmax: relative maximum plasma level ([1]; human, in vivo, po, 500 mg): 233 ± 69 relative chromatographic area; mean chromatographic area in plasma, T0.5 ([1]; in vivo): 65; mean chromatographic area in plasma, T1 ([1]; in vivo): 212; mean chromatographic area in plasma, T2 ([1]; in vivo): 192; mean chromatographic area in plasma, T4 ([1]; in vivo): 165; mean chromatographic area in plasma, T6 ([1]; in vivo): 119; mean chromatographic area in plasma, T8 ([1]; in vivo): 108; mean chromatographic area in plasma, T10 ([1]; in vivo): 75
COc1cc(CCO)ccc1OS(=O)(=O)O [homovanillyl alcohol sulfate]	0	0	0	45	81	76	31	437 ± 278 relative chromatographic area/h	156 ± 49 relative chromatographic area	7 ± 2 h											mean chromatographic area in plasma, T0.5 [1, 3]: 0; mean chromatographic area in plasma, T1 ([1]; 1 h after O. europaea extract): 94; mean chromatographic area in plasma, T2 ([1]; 2 h after O. europaea extract): 111; mean chromatographic area in plasma, T4 ([1]; 4 h after O. europaea extract): 61; mean chromatographic area in plasma, T6 ([1]; 6 h after O. europaea extract): 0; mean chromatographic area in plasma, T8 ([1]; 8 h after O. europaea extract): 0; mean chromatographic area in plasma, T10 ([1]; 10 h after O. europaea extract): 0; Cmax: relative maximum plasma level [1, 4]: 135 ± 32 relative chromatographic area; observed Tmax: time required to reach Cmax [1, 4]: 2.0 ± 0.9 h
OCCc1ccc(O)c(O)c1 [hydroxytyrosol]																					detection in plasma samples ([1]; in vivo): detected in plasma samples; AUC of the sulfated form compared to the glucuronidated form ([2]; human, in vivo): about 10 times
O=C(O)CCCCCCCCC(=O)O [sebacic acid Isomer 2, sebacic acid]													15	86	86	15					
O=C(O)CCCCCCCCC(=O)O [sebacic acid isomer, sebacic acid]											141 ± 86 relative chromatographic area/h	119 ± 27 relative chromatographic area	22	102	35	0	0	0	0	1.2 ± 0.4 h	
COc1cc(C(=O)O)ccc1OS(=O)(=O)O [vanillic acid 4-O-sulfate isomer 2, vanillic acid 4-O-sulfate]	18	102	43	0	0	0	0	152 ± 118 relative chromatographic area/h	119 ± 41 relative chromatographic area	1.2 ± 0.4 h											
C[C@@H]1O[C@@H](O[C@@H]2[C@@H](O)[C@H](OCCc3ccc(O)c(O)c3)O[C@H](CO)[C@H]2OC(=O)/C=C/c2ccc(O)c(O)c2)[C@H](O)[C@H](O)[C@H]1O [verbascoside]																					detection in plasma samples (native form or phase II metabolites) ([2]; in vivo): has not been detected in plasma samples
gardoside [gardoside isomer 1]											608 ± 375 relative chromatographic area/h	211 ± 72 relative chromatographic area	0	85	211	86	27	0	0	2 ± 0 h	
gardoside [gardoside isomer 2]											2015 ± 547 relative chromatographic area/h	508 ± 110 relative chromatographic area	123	328	480	284	151	51	15	2.3 ± 0.7 h	
pteroside Z [pteroside Z isomer 1]											123 ± 53 relative chromatographic area/h	120 ± 22 relative chromatographic area	0	105	28	0	0	0	0	1.2 ± 0.4 h	
pteroside Z [pteroside Z isomer 2]											310 ± 84 relative chromatographic area/h	181 ± 58 relative chromatographic area	28	152	97	18	0	0	0	2 ± 1 h	
